The source of these data is patent US7078414B2, “Derivatives of 3-guanidinocarbonyl-1-heteroaryl-pyrrole, preparation process and intermediates of this process, their use as medicaments, and pharmaceutical compositions comprising them” (Sanofi-Aventis Deutschland GmbH, priority 2002, dated 2006).

Structures are written as SMILES. Structures can show the parent of a compound that is named as a salt.

In one data set the target is T1, NHE-1 subtype (Homo sapiens, UniProt P19634).
T1 construct: expressed in transfected cells; host or cells: LAP-1 cells (parental line has no endogenous NHE activity), stably transfected and kept under G418 selection
T1 sequence (P19634 whole entry): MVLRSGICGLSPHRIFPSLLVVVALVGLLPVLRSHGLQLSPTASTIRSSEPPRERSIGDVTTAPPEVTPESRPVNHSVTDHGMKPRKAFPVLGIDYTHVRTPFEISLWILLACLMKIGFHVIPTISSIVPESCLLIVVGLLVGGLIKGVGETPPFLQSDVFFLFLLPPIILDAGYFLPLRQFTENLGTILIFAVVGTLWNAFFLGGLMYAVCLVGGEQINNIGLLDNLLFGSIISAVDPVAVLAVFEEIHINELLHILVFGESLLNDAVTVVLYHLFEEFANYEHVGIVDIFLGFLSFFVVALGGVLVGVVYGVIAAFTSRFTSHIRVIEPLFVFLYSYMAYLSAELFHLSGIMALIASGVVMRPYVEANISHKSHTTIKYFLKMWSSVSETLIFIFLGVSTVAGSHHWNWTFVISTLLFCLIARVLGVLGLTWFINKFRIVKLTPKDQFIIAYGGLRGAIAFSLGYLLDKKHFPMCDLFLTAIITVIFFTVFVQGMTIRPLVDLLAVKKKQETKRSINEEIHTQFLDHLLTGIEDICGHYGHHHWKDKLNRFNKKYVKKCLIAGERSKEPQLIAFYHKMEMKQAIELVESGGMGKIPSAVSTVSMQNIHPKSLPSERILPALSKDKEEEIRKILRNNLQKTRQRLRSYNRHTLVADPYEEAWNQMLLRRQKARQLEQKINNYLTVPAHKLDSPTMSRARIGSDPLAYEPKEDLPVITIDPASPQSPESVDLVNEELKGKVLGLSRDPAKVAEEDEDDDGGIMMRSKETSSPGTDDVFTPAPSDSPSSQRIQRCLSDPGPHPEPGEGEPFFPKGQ
Description: NHE inhibition FLIPR test (intracellular pH recovery, BCECF) in transfected LAP-1 cell lines expressing NHE subtypes. Type of data set: cell-based. The settings on record: transfected LAP-1 cells expressing NHE-1 subtype, read-out: IC50 (NHE1). As to the method:
The NHE inhibitory activities (IC50 values) of the compounds according to the invention were determined by a FLIPR test.
The test is performed in the FLIPR (Fluorescent Imaging Plate Reader) equipped with clear-bottomed and black-walled 96-well microtitration plates.
The growth medium for the transfected cells (Iscove +10% foetal calf serum) also comprises G418 as selection antibiotic to ensure the presence of transfected sequences.
The actual test begins by eliminating the growth medium and adding 100 μl of loading buffer per well (5 μM of BCECF-AM [2′,7′-bis(2-carboxyethyl)-5-(6)-carboxyfluoresceine acetoxymethyl ester] in 20 mM of NH4Cl, 115 mM of choline chloride, 1 mM of CaCl2, 5 mM of KCl, 20 mM of HEPES and 5 mM of glucose; pH 7.4 (adjusted with KOH). The cells are then incubated for 20 minutes at 37° C. This incubation results in the loading of the fluorescent dye into the cells, the fluorescence intensity of which depends on the pHi, and on the NH4Cl, which results in a slight basification of the cells.
The precursor BCECF-AM, a non-fluorescent dye, is, as an ester, capable of crossing the membrane. The actual dye, which is incapable of crossing the membrane, is released inside the cell by esterases.
After this 20-minute incubation, the loading buffer, which comprises NH4Cl and free BCECF-AM, is removed by washing three times in the cell washing device (Tecan Columbus), each wash being performed with 400 μL of washing buffer (133.8 mM of choline chloride, 4.7 mM of KCl, 1.25 mM of MgCl2, 1.25 mM of CaCl2, 0.97 mM of K2HPO4, 0.23 mM of KH2PO4, 5 mM of HEPES and 5 mM of glucose; pH 7.4 (adjusted with KOH)). The residual volume remaining in the wells is 90 μL (possibly between 50 and 125 μL). This washing step removes the free BCECF-AM and results in an intracellular acidification (pHi of 6.3–6.4) due to the removal of the external ammonium ions.
As the equilibrium of the intracellular ammonium with the aqueous ammonia and the protons, by removal of the extracellular ammonium and by the subsequent immediate crossing of the aqueous ammonia across the cell membrane, is disrupted, the washing process results in intracellular protons remaining, which is the cause of the intracellular acidification. This acidification can result finally in the death of the cells if it lasts long enough. It is important here for the washing buffer to be free of sodium (<1 mM), otherwise the extracellular sodium ions would result in an immediate increase in the pHi on account of the activity of the cloned NHE isoforms. It is also important for all the buffers used (loading buffer, washing buffer and regeneration buffer) not to contain any HCO3-ions, otherwise the presence of bicarbonate would result in the activation of bicarbonate-dependent systems that disrupt the pHi regulation, which systems are contained in the LAP-1 parental cell line.
The microtiter plates containing acidified cells are then transferred (up to 20 minutes after the acidification) to the FLIPR. In the FLIPR, the intracellular fluorescent dye is activated with light of a wavelength of 488 nm, which is generated by an argon laser, and the measuring parameters (laser power, illumination time and diaphragm of the […] camera integrated into the FLIPR) are chosen such that the average value of the f fluorescent signal per well is between 30,000 and 35,000 relative fluorescence units.
The actual measurement in the FLIPR starts with a photograph being taken by the CCD camera every two seconds under software control. After 10 seconds, the increase in the intracellular pH is initiated by adding 90 μL of regeneration buffer (133.8 mM of NaCl, 4.7 mM of KCl, 1.25 mM of MgCl2, 1.25 mM of CaCl2, 0.97 mM of K2HPO4, 0.23 mM of KH2PO4, 10 mM of HEPES and 5 mM of glucose; pH 7.4 (adjusted with NaOH)) using a 96-well pipette device incorporated into the FLIPR.
Some wells, to which is added pure regeneration buffer, serve as positive controls (100% NHE activity). […]

As for `N=C(N)NC(=O)c1ccn(-c2cncc3ccccc23)c1` [Example 8, 3-Guanidinocarbonyl-1-(isoquinol-4-yl)-1H-pyrrole], at NHE-1 subtype, the IC50 stood at 121 nM.
Same read-out and setting: as for `Cc1cn(-c2cncnc2)cc1C(=O)NC(=N)N` [Example 28, N-(4-Methyl-1-pyrimidin-5-yl-1H-pyrrole-3-carbonyl)-guanidine], the figure is 192 nM.
The compound `CC(=O)O.Cc1cn(-c2cnc3ccccc3c2)cc1C(=O)NC(=N)N` [Example 30, N-(4-Methyl-1-quinolin-3-yl-1H-pyrrole-3-carbonyl)-guanidine hydrogenacetate] returned a melting point of 279.5 °C. For the same compound, the half-maximal inhibitory concentration (IC50) at NHE-1 subtype was 17 nM.
In the case of `Cc1c(C(=O)NC(=N)N)cn(-c2ccnc3ccccc23)c1C` [Example 11, 3-Guanidinocarbonyl-4,5-dimethyl-1-(quinol-4-yl)-1H-pyrrole dihydrochloride], the IC50 on NHE-1 subtype amounted to 19 nM.
For the compound `NC(N)=NC(=O)c1ccn(-c2cnnc3ccccc23)c1` [Example 24, N-(1-Cinnolin-4-yl-1H-pyrrole-3-carbonyl)-guanidine trifluoroacetate], on NHE-1 subtype, the IC50 turned out to be 222 nM.
The same measure, in the same setting: the same measure for `NC(N)=NC(=O)c1ccn(-c2ccnc3c(F)cccc23)c1` [Example 23, N-[1-(8-Fluoro-quinolin-4-yl)-1H-pyrrole-3-carbonyl]-guanidinetrifluoroacetate]: 97.7 nM.
Take `Cl.N=C(N)NC(=O)c1cn(-c2ccnc3ccccc23)cc1C1CC1` [Example 12, 4-Cyclopropyl-3-guanidinocarbonyl-1-(quinolin-4-yl)-1H-pyrrole dihydrochloride]: the melting point was 185 °C. Further, at NHE-1 subtype, the half-inhibitory concentration (IC50) turned out to be 0.5 nM.
Regarding `Cc1cn(-c2cccnc2)cc1C(=O)NC(=N)N` [Example 27, N-(4-Methyl-1-pyridin-3-yl-1H-pyrrole-3-carbonyl)-guanidine], the IC50 on NHE-1 subtype came out at 0.6 nM.
In the case of `Cc1cn(-c2ccnc3c(F)cccc23)cc1C(=O)N=C(N)N` [Example 22, N-[1-(8-Fluoro-quinolin-4-yl)-4-methyl-1H-pyrrole-3-carbonyl]-guanidine trifluoroacetate], the IC50 at NHE-1 subtype amounted to 0.2 nM.
Regarding `NC(N)=NC(=O)c1ccn(-c2ccnc3ccccc23)c1` (as salt: hydrochloride) [Example 2, 3-Guanidinocarbonyl-1-(quinol-4-yl)-1H-pyrrole dihydrochloride], the melting point amounted to 244 °C.
`Cc1cn(-c2cccc3ncccc23)cc1C(=O)NC(=N)N.Cl` [Example 13, 3-Guanidinocarbonyl-4-methyl-1-(quinolin-5-yl)-1H-pyrrole hydrochloride] yielded a melting point of 240 °C. Further, the IC50 on NHE-1 subtype is 0.1 nM.
The compound `Cc1c(C(=O)NC(=N)N)ccn1-c1ccc2ccccc2n1` (as salt: hydrochloride) [Example 4, 3-Guanidinocarbonyl-2-methyl-1-(quinol-2-yl)-1H-pyrrole hydrochloride] came in with a melting point of 250 °C.
Compound `Cl.NC(N)=NC(=O)c1ccn(-c2ccc3ccccc3n2)c1` [Example 1, 3-Guanidinocarbonyl-1-(quinol-2-yl)-1H-pyrrole hydrochloride] displayed a melting point of 258 °C. The IC50 on NHE-1 subtype worked out at 49 nM.
For `N=C(N)NC(=O)c1cn(-c2nccc3ccccc23)cc1C(F)(F)F` [Example 15, 4-Trifluoromethyl-3-guanidinocarbonyl-1-(isoquinolin-1-yl)-1H-pyrrole hydrochloride], at NHE-1 subtype, the IC50 was found to be 2.6 nM.
On to `Cc1c(C(=O)N=C(N)N)ccn1-c1ccnc2ccccc12` (as salt: hydrochloride) [Example 3, 3-Guanidinocarbonyl-2-methyl-1-(quinol-4-yl)-1H-pyrrole dihydrochloride], for which the melting point worked out at 240 °C.
Turning to `NC(N)=NC(=O)c1ccn(-c2ccnc3ccccc23)c1` [Example 2, 3-Guanidinocarbonyl-1-(quinol-4-yl)-1H-pyrrole dihydrochloride], the IC50 at NHE-1 subtype is 22 nM.
On the same count and under the same terms, as for `Cc1cn(-c2ccccn2)cc1C(=O)NC(=N)N` [Example 26, N-(4-Methyl-1-pyridin-2-yl-1H-pyrrole-3-carbonyl)-guanidine], the figure is 3.6 nM.
Take `NC(N)=NC(=O)c1ccn(-c2nccc3ccccc23)c1` [Example 5, 3-Guanidinocarbonyl-1-(isoquinol-1-yl)-1H-pyrrole hydrochloride]: on NHE-1 subtype, the IC50 is 51 nM.
For `Cc1c(C(=O)N=C(N)N)ccn1-c1ccnc2ccccc12` [Example 3, 3-Guanidinocarbonyl-2-methyl-1-(quinol-4-yl)-1H-pyrrole dihydrochloride], the concentration for half-maximal inhibition (IC50) on NHE-1 subtype is 67 nM.
For `Cc1cn(-c2ncccn2)cc1C(=O)NC(=N)N` [Example 25, N-(4-Methyl-1-pyrimidin-2-yl-1H-pyrrole-3-carbonyl)-guanidine], the melting point is 208.5 °C.
On to `N=C(N)NC(=O)c1ccn(-c2cccc3ncccc23)c1` [Example 6, 3-Guanidinocarbonyl-1-(quinol-5-yl)-1H-pyrrole], for which the melting point is 260 °C. For the same compound, the 50% inhibitory concentration (IC50) on NHE-1 subtype is 44 nM.
In the case of `Cc1cc(-n2ccc(C(=O)N=C(N)N)c2)c2ccccc2n1` [Example 17, N-[1-(2-Methyl-quinolin-4-yl)-1H-pyrrole-3-carbonyl]-guanidinetrifluoroacetate], the IC50 at NHE-1 subtype stood at 10.7 nM.
On to `NC(N)=NC(=O)c1ccn(-c2ccnc3cc(Cl)ccc23)c1` [Example 19, N-[1-(7-Chloro-quinolin-4-yl)-1H-pyrrole-3-carbonyl]-guanidinetrifluoracetate], for which, at NHE-1 subtype, the IC50 was 42.9 nM.
Compound `Cc1cn(-c2ccnc3ccccc23)cc1C(=O)NC(=N)N` [Example 9, 3-Guanidinocarbonyl-4-methyl-1-(quinol-4-yl)-1H-pyrrole] had a melting point of 215 °C. The IC50 on NHE-1 subtype was 0.25 nM.
Regarding `N=C(N)NC(=O)c1cn(-c2ccnc3ccccc23)cc1C(F)(F)F` [Example 14, 4-Trifluoromethyl-3-guanidinocarbonyl-1-(quinolin-4-yl)-1H-pyrrole], the concentration for half-maximal inhibition (IC50) on NHE-1 subtype came to 2.3 nM.
In the case of `Cc1cn(-c2ccnc3cc(Cl)ccc23)cc1C(=O)N=C(N)N` [Example 18, N-[1-(7-Chloro-quinolin-4-yl)-4-methyl-1H-pyrrole-3-carbonyl]-guanidine trifluoroacetate], at NHE-1 subtype, the IC50 is 1.6 nM.
Compound `CC(=O)O.Cc1cn(-c2ccc3ccccc3n2)cc1C(=O)NC(=N)N` [Example 29, N-(4-Methyl-1-quinolin-2-yl-1H-pyrrole-3-carbonyl)-guanidine hydrogenacetate] returned a melting point of 264.4 °C. Also, the IC50 at NHE-1 subtype was determined as 4.3 nM.
As for `NC(N)=NC(=O)c1ccn(-c2ccnc3ccc(F)cc23)c1` [Example 21, N-[1-(6-Fluoro-quinolin-4-yl)-1H-pyrrole-3-carbonyl]-guanidinetrifluoroacetate], on NHE-1 subtype, the IC50 worked out at 29 nM.
As for `Cc1cc(-n2cc(C)c(C(=O)N=C(N)N)c2)c2ccccc2n1` [Example 16, N-[4-Methyl-1-(2-methyl-quinolin-4-yl)-1H-pyrrole-3-carbonyl]-guanidine trifluoroacetate], at NHE-1 subtype, the IC50 amounted to 3.1 nM.
On to `Cc1c(C(=O)NC(=N)N)ccn1-c1ccc2ccccc2n1` [Example 4, 3-Guanidinocarbonyl-2-methyl-1-(quinol-2-yl)-1H-pyrrole hydrochloride], for which the IC50 at NHE-1 subtype was found to be 96 nM.
On the same count and under the same terms, the same measure for `Cc1cn(-c2ccnc3ccc(F)cc23)cc1C(=O)N=C(N)N` [Example 20, N-[1-(6-Fluoro-quinolin-4-yl)-4-methyl-1H-pyrrole-3-carbonyl]-guanidine trifluoroacetate]: 0.8 nM.

One may read the IC50 as the concentration needed to halve the response being measured. The term melting point denotes the temperature, or range, at which the solid turns liquid.
